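Tested at 5 concentrations; 48 h exposure; 96-well plates; endpoints linearly interpolated, else capped at highest concentration. GI50 marks 50% less growth. TGI marks complete inhibition of growth.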
Experiments:
Assay in all cases: inhibition of tumour cell growth, NCI panel, 48 h
[1] = test system: ACHN renal
[2] = test system: CAKI-1 renal
[3] = test system: HCT-116 colon
[4] = test system: HOP-92 NSCLC
[5] = test system: K-562 leukemia
[6] = test system: NCI-H522 lung
[7] = test system: OVCAR-4 ovarian
[8] = test system: TK-10 renal
[9] = test system: UO-31 renal
[10] = test system: PC-3 prostate

SMILES	TGI [1] [µM]	TGI [2] [µM]	TGI [3] [µM]	TGI [4] [µM]	TGI [5] [µM]	TGI [6] [µM]	TGI [7] [µM]	TGI [8] [µM]	TGI [9] [µM]	GI50 [1] [µM]	GI50 [2] [µM]	GI50 [3] [µM]	GI50 [4] [µM]	GI50 [5] [µM]	GI50 [6] [µM]	GI50 [7] [µM]	GI50 [10] [µM]	TGI [10] [µM]	GI50 [8] [µM]	GI50 [9] [µM]
O=C(c1nc2ccc(Cl)cc2[nH]c1=O)C(O)c1cccc([N+](=O)[O-])c1 (configuration not stated)	> 100	> 100	> 100	> 100	> 100	> 100	> 100	> 100	> 100	–	–	–	–	–	–	–	–	–	–	–
O=C(CC(=O)c1cccc2ccccc12)C(=O)Nc1nccs1	> 100	> 100	> 100	> 100	> 100	> 100	> 100	> 100	> 100	–	–	–	–	–	–	–	–	–	–	–
COC(=O)C(Br)(C(=O)OC)C(Br)C(Br)C(Br)c1ccccc1 (configuration not stated)	5.15	3.73	3.01	12.3	9.93	1.53	3.96	6.19	3.3	2.2	1.76	1.61	3.42	2.95	0.573	1.82	4.58	17.3	2.35	1.64
CN(C)C(=S)/N=C(\N)N(C)C	> 100	> 100	> 100	> 100	> 100	> 100	> 100	> 100	> 100	–	–	–	–	–	–	–	–	–	–	–
COc1ccc(C#CC2=C(Br)C(=O)OC2)cc1	13.2	6.61	35.7	–	> 50	> 50	11.4	16.2	> 50	3.56	1.76	1.4	–	4.77	25.8	2.46	11.6	29.8	1.94	16.9
CNC(=O)NCCCCC(NC(=O)OCc1ccccc1)C(=O)OCc1ccccc1 (configuration not stated)	33.8	48.6	> 100	89.2	> 100	28.3	46.5	52.6	32.7	–	–	–	–	–	–	–	–	–	–	–
CC(C)=CC1(C)/C(=N\O)C(C)(CC(C)C)C(=O)N1O (configuration not stated)	> 100	> 100	> 100	> 100	> 100	> 100	> 100	> 100	> 100	–	–	–	–	–	–	–	–	–	–	–
O=C(Cc1ccccc1)N/N=C(/c1nc2ccc([N+](=O)[O-])cc2[nH]c1=O)C(O)c1ccco1 (configuration not stated)	> 100	> 100	> 100	> 100	> 100	> 100	> 100	> 100	> 100	–	–	–	–	–	–	–	–	–	–	–
CCOC(=O)C1=C(Nc2cccc3ccccc23)OCC1=O	> 100	> 100	> 100	> 100	> 100	> 100	> 100	–	> 100	–	–	–	–	–	–	–	–	–	–	–
C=C(C)[C@@H]1CC[C@]2(COC(=O)c3ccccc3C(=O)O)CC[C@]3(C)[C@H](CC[C@@H]4[C@@]5(C)CC[C@H](OC(=O)c6ccccc6C(=O)O)C(C)(C)[C@@H]5CC[C@]43C)[C@@H]12	> 100	85.2	> 100	64.5	> 100	96.9	> 100	63.3	> 100	28	18.6	33.1	19.6	31.7	22.8	36.7	34.6	> 100	24.8	32.1
CSc1ccc(NC(=O)CCl)cc1	> 10	> 10	> 10	8.88	> 10	6.82	> 10	> 10	9.79	–	–	–	–	–	–	–	–	> 10	–	–
COc1ccc2c3c1OC1C4(CCC5C(C2)N(CC2CC2)CCC351)OCCO4 (configuration not stated)	> 100	> 100	> 100	> 100	> 100	> 100	> 100	> 100	> 100	–	–	–	–	–	–	–	–	> 100	–	–
NC1=C(/C(N)=N/O)C(c2ccccc2)c2ccc3ccccc3c2O1 (configuration not stated)	51.1	42.3	30.7	> 73.1	> 100	26.7	> 100	> 100	> 84.3	0.458	0.192	0.444	0.579	0.145	0.145	0.831	0.291	> 100	20.2	0.348
Cn1c(=S)c2[nH]c(SCc3cccnc3)nc2n(C)c1=O	> 100	> 100	> 100	> 100	> 100	> 100	> 100	> 100	> 100	–	–	–	–	–	–	–	–	> 100	–	–
COC(=O)CCC(=O)Nc1cc(C)ccc1C	> 100	> 100	> 100	> 100	> 100	> 100	> 100	> 100	> 100	–	–	–	–	–	–	–	–	–	–	–
CC(NNC(=S)N1CCN(c2ccccn2)CC1)c1cccc[n+]1[O-] (configuration not stated)	> 100	> 100	13.7	> 100	–	15.3	> 100	> 100	82.3	–	–	–	–	–	–	–	–	> 100	–	–
CCSc1nc(N)c(C#N)c(-c2ccc(OC)c(OC)c2)c1C#N	> 50	> 50	47.5	> 50	27.7	35.2	–	> 50	> 50	> 50	16.6	16.4	6.49	10.7	10.2	–	10.4	> 50	49.6	15.9

SMILES	TGI [1] [µM]	TGI [2] [µM]	TGI [3] [µM]	TGI [4] [µM]	TGI [5] [µM]	TGI [6] [µM]	TGI [7] [µM]	TGI [8] [µM]	TGI [9] [µM]	GI50 [1] [µM]	GI50 [2] [µM]	GI50 [3] [µM]	GI50 [4] [µM]	GI50 [5] [µM]	GI50 [6] [µM]	GI50 [7] [µM]	GI50 [10] [µM]	TGI [10] [µM]	GI50 [8] [µM]	GI50 [9] [µM]
CC1=C(C(=O)NCc2ccccc2)C(c2ccc(N(C)C)cc2)C(C(=O)NCc2ccccc2)=C(C)N1	> 100	> 100	> 100	> 100	> 100	> 100	> 100	> 100	> 100	–	–	–	–	–	–	–	–	–	–	–
Fc1cccc(-c2nc(-c3c[nH]c4ncccc34)cs2)c1	> 100	> 100	> 100	18.6	> 100	> 100	–	> 100	> 100	9.68	> 100	7.9	0.128	> 100	> 100	–	> 100	> 100	25.9	33.4
COc1ccc(OC)c(-c2nc3sc(C)cn3c2/C=C2\C(=O)N(C)c3ccccc32)c1	> 100	65.4	37.1	–	71.1	59.4	> 100	> 100	59.7	28.7	23.8	18.6	–	5.98	22	34.1	20.9	> 100	48.3	21.1
CCOC(=O)CC1C(CNC(=O)NC)OC(n2cnc3c(NC(=O)Nc4ccccc4)ncnc32)C1O[Si](C)(C)C(C)(C)C (configuration not stated)	> 100	> 100	16.1	–	32.9	85.7	> 100	40.5	29.5	8.55	29.7	3.2	–	3.59	4.36	12.3	2.25	4.85	12.4	12.1
CCCCCCCCCCCc1cc(=O)c2c(O)cccc2o1	> 100	> 100	> 100	> 100	> 100	> 100	> 100	> 100	> 100	–	–	–	–	–	–	–	–	–	–	–
C#CCn1c2c(c3ccccc3c1=O)C(=O)c1ccccc1-2	–	24.3	> 100	> 100	> 100	42.2	33.1	61.6	13.9	–	–	–	–	–	–	–	–	> 100	–	–
COc1ccc(-c2cncn2-c2ccc(-c3nc4cc(OC)c(OC)c(OC)c4s3)cc2)cc1N	> 100	> 100	> 100	–	> 100	17.5	> 100	> 100	7.57	5.59	4.82	3.78	–	3.38	3.37	6.29	2.59	> 100	4.16	1.99
CCCCCC/C=C\CCCCCCCCCc1cccc(OC)c1O	> 100	> 100	> 100	–	> 100	> 100	–	> 100	> 100	–	–	–	–	–	–	–	–	> 100	–	–
Nc1ncc(-c2ccc3ncnc(N4CCc5cc(F)c(Cl)cc54)c3c2)cc1C(F)(F)F	> 100	–	> 100	–	> 100	> 100	27.9	–	> 100	0.784	–	2.08	–	1.61	2.01	1.74	1.44	> 100	–	0.33
Clc1ccc2c(NCCNc3nc(N4CCCCC4)nc4ccccc34)ccnc2c1	3.59	–	1.63	3.24	–	3.85	13.8	5.13	2.79	1.79	–	0.441	1.62	–	1.75	2.81	3.17	14.4	2.15	1.39
COc1ccc(/C=C\c2cc(OC)c(OC)c(OC)c2)cc1N/C=C\C(=O)c1c[nH]c2ccccc12	> 100	> 100	10.4	3.64	> 100	–	> 100	> 100	> 100	< 0.01	< 0.01	< 0.01	0.0137	< 0.01	–	< 0.01	< 0.01	> 100	40.2	< 0.01
COc1cc2ccnc(-c3n[nH]c4cc(OC)c(OC)cc34)c2cc1OC	> 100	> 100	> 100	> 100	> 100	69.7	> 100	> 100	> 100	–	–	–	–	–	–	–	–	–	–	–
COc1ccc(/C=N/C2=NNC(C)(c3ccccc3O)N2C(Cc2c[nH]c3ccccc23)C(=O)O)cc1 (configuration not stated)	14.7	–	10.2	5.17	11.6	10	15.1	10.9	11.2	3.02	–	2.52	1.31	2.38	2.49	2.26	2.68	11.6	5.01	1.62
CCN1Cc2c(/C=C/c3ccccc3)nc3ccc(OC)cc3c2N(c2cccc(Cl)c2)C1	3.08	3.57	3.8	3.77	–	2.88	8.44	3.43	2.95	1.61	1.51	1.67	1.62	–	1.4	2.8	1.79	5.64	1.62	1.38
COC(=O)C1OC(SCCN)C(O)C(O)C1O (configuration not stated)	> 100	> 100	> 100	> 100	> 100	> 100	> 100	> 100	–	–	–	–	–	–	–	–	–	> 100	–	–
CC(C(=O)c1ccc(O)cc1)C1(O)C(=O)Nc2c(Cl)cc(Cl)cc21 (configuration not stated)	28.3	> 100	> 100	> 100	32.6	57.8	50.5	> 100	> 100	–	–	–	–	–	–	–	–	–	–	–
O=C1c2ccccc2-c2c1c1ccc3ccccc3c1n2-c1ccccc1	40.2	40.9	–	52.1	> 100	> 100	> 100	44.7	> 100	20.5	22	–	16	> 100	53.1	> 100	35.7	> 100	20.6	44.7

From PubChem BioAssay (NCI)
